Assay results taken from publication PMC10947119 (Angewandte Chemie (International Ed. in English), 2023).

What was measured:
[1] = target: T1, MtbPPAT (Mycobacterium tuberculosis, UniProt P9WPA5); details: read-out: KD, previous estimates; ITC, near-identical conditions; cited from earlier work
[2] = target: T1, MtbPPAT; type: binding; details: for Affinity increase (KD lower) relative to parent indole fragment 12: KD by ITC vs KD of 12
[3] = system: Mycobacterium abscessus; details: cited from earlier work
[4] = system: wildtype Mtb H37RvMA; type: cell-based, Mycobacterium tuberculosis
[5] = target: T1, MtbPPAT; experiment: MtbPPAT activity assay; type: biochemical; details: 1 mM compound, ATP 120, 240, 500 µM
[6] = system: PPAT of Mycobacterium abscessus; details: cited from earlier work

T1 sequence (P9WPA5 whole entry, looked up, the tested form may be a part): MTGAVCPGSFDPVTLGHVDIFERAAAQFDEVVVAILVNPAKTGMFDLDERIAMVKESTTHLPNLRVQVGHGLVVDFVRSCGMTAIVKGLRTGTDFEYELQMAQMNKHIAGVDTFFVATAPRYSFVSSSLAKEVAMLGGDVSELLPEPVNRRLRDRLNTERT

Structure (SMILES)	Kd [1] [µM]	Affinity increase (KD lower) relative to parent indole fragment 12 [2]	Whole-cell activity against M. abscessus [3]	Effect of ATc on potency [4]	Ligand efficiency LE ([2]; from direct ITC KD, Condition 1 (20 mM NaCl)) [kcal mol^−1 NHA^−1]	Mode of inhibition of MtbPPAT activity [5]	Affinity for M. abscessus PPAT [6]
CC(C)(COP(=O)(O)OP(=O)(O)OC[C@H]1O[C@@H](n2cnc3c(N)ncnc32)[C@H](O)[C@@H]1OP(=O)(O)O)[C@@H](O)C(=O)NCCC(=O)NCCS [CoA, coenzyme A]	≥ 13						
O=C(O)c1cnn(-c2ccccc2)c1OCCc1c[nH]c2ccccc12 [compound 19]		≈ 25 fold					
O=C(O)c1cnn(-c2ccccc2)c1OCCCc1c[nH]c2ccccc12 [compound 20]		≈ 65 fold	lacked whole‐cell activity	no effect	0.24	ATP‐competitive manner	low‐micromolar affinity
